Laboratory results from paper PMC7179205, “An Improved Synthesis of Key Intermediate to the Formation of Selected Indolin-2-Ones Derivatives Incorporating Ultrasound and Deep Eutectic Solvent (DES) Blend of Techniques, for Some Biological Activities and Molecular Docking Studies” (Molecules, 2020).
“Also recorded” adds a separate entry of the source. Read-outs that look alike come from different tables or passages of the source.

How the values were obtained:
[1] = tested on: acetic acid-induced writhing; experiment: acetic acid-induced writhing method (analgesic activity); type: in vivo, Swiss albino mice; conditions: for inhibition in vivo at 10 mg/kg: Mus musculus, read-out: % Analgesic Activity; for Potency (analgesic): relative to indomethacin = 1.00, 10 mg/kg; for Mean with ± SEM: writhes counted for 15 min; for analgesic activity (in words): compared with standard indomethacin
Description: All the tested compounds and standard drugs are evaluated at 10 mg/kg oral dose.
The analgesic activity of the tested compounds was carried out by acetic acid-induced writhing method as given in the literature using Swiss albino mice of either sex (25–35 g). The writh were induced in the albino mice using an intraperitoneal injection of 1% acetic acid solution. The standard drug indomethacin and test compounds were evaluated at a concentration of 10 mg/kg of the body weight. The animals were divided into groups and each group consisted of six animals. One group was kept as control, one as standard, and other as test groups. To the control group, 0.1% CMC solution was administered p.o; to the standard group, the standard drug was administered orally, and to the test group, test compounds were administered orally. After 60 min of the 0.1% CMC solution/standard drug/tested compound administration, 0.1 ml of 1% (v/v) acetic acid solution in distilled water was injected intraperitoneally in all the mice in each group including the control group. The writhing (a contraction of the abdomen, turning of trunk, and extension of hind limbs) was counted after 5 min of acetic acid administration and were counted for a period of 15 min. The percentage of analgesic activity was calculated using the following formula.
(Mean wriths of control—mean wriths of std./test) / mean wriths of control) × 100

Rat Paw Edema = experiment: carrageenan-induced hind paw edema method (anti-inflammatory activity); type: in vivo, Wistar albino rats; conditions: for inhibition in vivo at 10 mg/kg: Rattus norvegicus, po; for inhibition in vivo at 10 mg/kg / anti-inflammatory activity (in words) / % Age Inhibition of Rat Paw Edema, 4 H: oral dose 10 mg/kg; for inhibition in vivo at 10 mg/kg / % Age Inhibition of Rat Paw Edema, 4 H: mean ± SEM; for Potency (anti-inflammatory): relative to indomethacin = 1.00; for anti-inflammatory activity (in words): compared with standard indomethacin
Description: The anti-inflammatory activity of the synthesized compounds (4a–n) was evaluated by the carrageenan-induced paw edema method. An oral dose of 10 mg/kg was used for compounds and compared with the standard. Anti-inflammatory activity was accessed through percentage inhibition after 2 and 4 h (Table 1).
Compounds produced were assessed for their anti-inflammatory activity using the carrageenan-induced hind paw edema method. The anti-inflammatory activity was carried out using Wistar albino rats of either sex (150–220 g) using a Digital Plethysmometer (Model No. 7140, UGO BASILE). The edema was induced by using 1% carrageenan solution. Indomethacin was used as a standard drug. The anti-inflammatory activity of the standard drug and tested compounds was determined at a dose of 10 mg/kg body weight. The animals were divided into groups containing six animals each and the initial paw volume of each rat was noted by the NaCl displacement method. One group was kept as control, one as standard, and the rest of the groups of compounds were to be tested. To the control group, 1% CMC solution was administered p.o. To the standard group, the standard drug was administered orally. To the test group, tested compounds were administered orally. After 60 min of the 1% CMC solution/standard drug/test compound administration, 0.1 ml of 1% (w/v) carrageenan was injected in the plantar region of the hind limb (right) of all the rats in each group including the control group. The paw volume was again measured after the time interval of 2 and 4 h. Using the following formula, inflammation was calculated as percentage inhibition for the test and reference compounds
(Final foot volume of control—final foot volume of std./test) × 100 / final foot volume of control)

[2] = 2 h, 2 h, read-out: % Age Inhibition of Rat Paw Edema, 2 H
[3] = 4 h, 4 h, read-out: % Age Inhibition of Rat Paw Edema, 4 H

| Compound | melting point | inhibition in vivo at 10 mg/kg ([1]; oral dose 10 mg/kg, mean ± SEM) | Potency (analgesic) [1] | Mean with ± SEM ([1]; oral dose 10 mg/kg) | inhibition in vivo at 10 mg/kg (Rat Paw Edema; [2]) | inhibition in vivo at 10 mg/kg (Rat Paw Edema; [3]) | Potency (anti-inflammatory) (Rat Paw Edema; 10 mg/kg) | analgesic activity (in words) ([1]; oral dose 10 mg/kg) | anti-inflammatory activity (in words) (Rat Paw Edema) | % Age Inhibition of Rat Paw Edema, 4 H (Rat Paw Edema; 4 h, 10 mg/kg) | anti-inflammatory activity (in words) (Rat Paw Edema; 10 mg/kg) | inhibition in vivo at 10 mg/kg ([1]; po) |
| --- | --- | --- | --- | --- | --- | --- | --- | --- | --- | --- | --- | --- |
| O=C1C(=NNc2nc(-c3cc4ccccc4oc3=O)cs2)c2ccccc2N1CNc1ccccc1[N+](=O)[O-] [Compound 4e, 1-[(2-Nitro-phenylamino)-methyl]-3-{[4-(2-oxo-2H-chromen-3-yl)-thiazol-2-yl]-hydrazono}-1,3-dihydro-indol-2-one] | 244 to 246 °C | 47.9 ± 1% | 0.65 | 16.88 ± 0.222 | 62.24 ± 0.08% | 48.6 ± 0.09% | 0.59 |  |  |  |  |  |
| O=C1C(=NNc2nc(-c3cc4ccccc4oc3=O)cs2)c2ccccc2N1CNn1cnnc1 [Compound 4h, 3-{[4-(2-Oxo-2H-chromen-3-yl)-thiazol-2-yl]-hydrazono}-1-([1,2,4]triazol-4-ylaminomethyl)-1,3-dihydro-indol-2-one] | 236 to 238 °C | 26.5 ± 0.317% | 0.35 | 23.83 ± 0.3073 | 35.39 ± 0.273% | 64.69 ± 0.245% | 0.78 | steep decrease in analgesic activity |  |  |  |  |
| O=C1C(=NNc2nc(-c3cc4ccccc4oc3=O)cs2)c2ccccc2N1CNc1ccc(F)cc1 [Compound 4b, 1-[(4-Fluoro-phenylamino)-methyl]-3-{[4-(2-oxo-2H-chromen-3-yl)-thiazol-2-yl]-hydrazono}-1,3-dihydro-indol-2-one] | 242 to 244 °C | 25.9 ± 0.58% | 0.35 | 24.00 ± 0.3651 | 59.3 ± 0.73% | 45.81 ± 0.069% | 0.55 |  |  |  |  |  |
| O=C1C(=NNc2nc(-c3cc4ccccc4oc3=O)cs2)c2ccccc2N1CNc1ccc(Br)cc1 [Compound 4d, 1-[(4-Bromo-phenylamino)-methyl]-3-{[4-(2-oxo-2H-chromen-3-yl)-thiazol-2-yl]-hydrazono}-1,3-dihydro-indol-2-one] | 241 to 243 °C | 42.9 ± 0.71% | 0.58 | 18.50 ± 0.4282 | 51.92 ± 0.337% | 6.98 ± 0.315% | 0.08 |  | negligible anti-inflammatory activity |  |  |  |
| O=C1C(=NNc2nc(-c3cc4ccccc4oc3=O)cs2)c2ccccc2N1CNc1ccncc1 [Compound 4j, 3-{[4-(2-Oxo-2H-chromen-3-yl)-thiazol-2-yl]-hydrazono}-1-(pyridine-4-ylaminomethyl)-1,3-dihydro-indol-2-one] | 237 to 239 °C | 47.14 ± 0.402% | 0.64 | 17.13 ± 0.539 | 53.81 ± 0.12% | 77.9% | 0.94 |  |  |  | good anti-inflammatory activity; also recorded: significant anti-inflammatory activity |  |
| O=C1C(=NNc2nc(-c3cc4ccccc4oc3=O)cs2)c2ccccc2N1CNc1ccc([N+](=O)[O-])cc1[N+](=O)[O-] [Compound 4g, 1-[(2,4-Dinitro-phenylamino)-methyl]-3-{[4-(2-oxo-2H-chromen-3-yl)-thiazol-2-yl]-hydrazono}-1,3-dihydro-indol-2-one] | 247 to 249 °C |  | 0.51 | 20.09 ± 0.3561 | 53.57 ± 0.16% | 77.9% | 0.94 |  |  | 77.94 ± 0.184 % | good anti-inflammatory activity; also recorded: significant anti-inflammatory activity | 38 ± 1% |
| O=C1C(=NNc2nc(-c3cc4ccccc4oc3=O)cs2)c2ccccc2N1CNc1ccccc1 [Compound 4a, 3-{[4-(2-Oxo-2H-chromen-3-yl)-thiazol-2-yl]-hydrazono}-1-phenylaminomethyl-1,3-dihydro-indol-2-one] | 245 to 247 °C | 47.5 ± 0.707% | 0.64 | 17.00 ± 0.2582 | 38.29 ± 0.016% | 5.57 ± 0.041% | 0.06 |  | negligible anti-inflammatory activity |  |  |  |

More lines, main results first:

| melting point | Compound | inhibition in vivo at 10 mg/kg ([1]; oral dose 10 mg/kg, mean ± SEM) | Potency (analgesic) [1] | Mean with ± SEM ([1]; oral dose 10 mg/kg) | inhibition in vivo at 10 mg/kg (Rat Paw Edema; [2]) | inhibition in vivo at 10 mg/kg (Rat Paw Edema; [3]) | Potency (anti-inflammatory) (Rat Paw Edema; 10 mg/kg) | analgesic activity (in words) ([1]; oral dose 10 mg/kg) | anti-inflammatory activity (in words) (Rat Paw Edema) | % Age Inhibition of Rat Paw Edema, 4 H (Rat Paw Edema; 4 h, 10 mg/kg) | anti-inflammatory activity (in words) (Rat Paw Edema; 10 mg/kg) | inhibition in vivo at 10 mg/kg ([1]; po) |
| --- | --- | --- | --- | --- | --- | --- | --- | --- | --- | --- | --- | --- |
| 231 to 233 °C | O=C1C(=NNc2nc(-c3cc4ccccc4oc3=O)cs2)c2ccccc2N1CNc1cccnc1 [Compound 4k, 3-{[4-(2-Oxo-2H-chromen-3-yl)-thiazol-2-yl]-hydrazono}-1-(pyridine-3-ylaminomethyl)-1,3-dihydro-indol-2-one] | 7.96 ± 0.432% | 0.10 | 29.83 ± 0.3073 | 38.09 ± 0.214% | 70.8% | 0.86 | least analgesic activity | significant anti-inflammatory activity | 70.75 ± 0.165% |  |  |
| 241 to 243 °C | O=C1C(=NNc2nc(-c3cc4ccccc4oc3=O)cs2)c2ccccc2N1CNc1ccc([N+](=O)[O-])cc1 [Compound 4l, 1-[(4-Nitro-phenylamino)-methyl]-3-{[4-(2-oxo-2H-chromen-3-yl)-thiazol-2-yl]-hydrazono}-1,3-dihydro-indol-2-one] | 44.98 ± 0.336% | 0.61 | 17.83 ± 0.3079 | 54.76 ± 0.228% | 80.9% | 0.98 |  |  | 80.94 ± 0.149 % | good anti-inflammatory activity; also recorded: highest anti-inflammatory activity |  |
| 244 to 246 °C | Cc1ccc(NCN2C(=O)C(=NNc3nc(-c4cc5ccccc5oc4=O)cs3)c3ccccc32)cc1 [Compound 4m, 3-{[4-(2-Oxo-2H-chromen-3-yl)-thiazol-2-yl]-hydrazono}-1-(p-tolylamino-methyl)-1,3-dihydro-indol-2-one] | 32.6 ± 0.845% | 0.44 | 21.83 ± 0.2051 | 53.27 ± 0.183% | 78.4% | 0.95 | less analgesic activity |  | 78.42 ±0.183 % | good anti-inflammatory activity; also recorded: significant anti-inflammatory activity; also recorded: better anti-inflammatory activity |  |
